According to patent US10369123B2, “Perk activator for the treatment of neurodegenerative diseases” (DEUTSCHES ZENTRUM FÜR NEURODEGENERATIVE ERKRANKUNGEN E.V. …, priority 2014, dated 2019):
Entries after “also recorded” stand apart in the source; their conditions may differ.

Molecular target: T1, PERK (Mus musculus, UniProt Q9Z2B5)
T1 construct: from tissue; host or cells: mouse brain (C57BL/6 wild type; whole brain homogenates / frontal cortex)
T1 sequence (Q9Z2B5 29-1114): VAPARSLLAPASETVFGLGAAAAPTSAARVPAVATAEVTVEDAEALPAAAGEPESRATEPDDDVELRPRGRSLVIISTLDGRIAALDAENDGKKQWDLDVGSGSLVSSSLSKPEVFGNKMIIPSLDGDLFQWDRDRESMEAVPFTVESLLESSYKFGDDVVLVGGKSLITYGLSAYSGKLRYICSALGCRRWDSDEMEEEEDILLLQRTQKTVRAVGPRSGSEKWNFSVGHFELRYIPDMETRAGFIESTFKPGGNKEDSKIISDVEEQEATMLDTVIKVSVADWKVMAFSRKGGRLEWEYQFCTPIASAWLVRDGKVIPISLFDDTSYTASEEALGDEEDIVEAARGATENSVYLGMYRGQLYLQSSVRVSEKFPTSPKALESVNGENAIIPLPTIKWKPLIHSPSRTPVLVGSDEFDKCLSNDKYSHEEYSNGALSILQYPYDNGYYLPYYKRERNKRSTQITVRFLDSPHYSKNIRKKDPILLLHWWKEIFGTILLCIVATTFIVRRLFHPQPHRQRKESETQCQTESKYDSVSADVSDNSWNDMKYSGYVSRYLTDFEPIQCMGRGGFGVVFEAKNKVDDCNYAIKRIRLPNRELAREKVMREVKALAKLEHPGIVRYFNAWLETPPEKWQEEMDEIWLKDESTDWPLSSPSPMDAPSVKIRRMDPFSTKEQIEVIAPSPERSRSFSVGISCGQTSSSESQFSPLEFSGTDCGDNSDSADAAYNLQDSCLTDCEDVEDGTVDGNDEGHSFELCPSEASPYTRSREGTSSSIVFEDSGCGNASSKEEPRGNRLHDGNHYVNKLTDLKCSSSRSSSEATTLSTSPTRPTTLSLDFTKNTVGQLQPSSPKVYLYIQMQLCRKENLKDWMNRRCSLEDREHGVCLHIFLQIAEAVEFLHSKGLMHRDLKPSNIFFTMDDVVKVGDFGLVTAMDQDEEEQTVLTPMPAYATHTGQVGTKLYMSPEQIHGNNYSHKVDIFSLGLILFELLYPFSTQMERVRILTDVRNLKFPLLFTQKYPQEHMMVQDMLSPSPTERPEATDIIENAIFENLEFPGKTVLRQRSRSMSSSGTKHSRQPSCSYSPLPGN
Assay: Target engagement: Western blots of whole brain homogenates after intraperitoneal administration
Assay type: in vivo
Experimental: All animal work was conducted either on CR57BL/6 mice, obtained from Charles River Laboratories, Wilmington, Mass., USA, or on homozygous transgenic mice overexpressing human tau with the P301S mutation on a C57BL/6 background, originally developed by Michel Goedert (Xu et al. 2014), obtained by own breeding. Animals were kept at 23±1° C. under standard 12 h light-dark cycle with free access to food and water. They were handled according to the EU Council Directive 2010/63/EU, the Guide for the Care and Use of Laboratory Animals (National Research Council 2011) and the guidelines of the local institutional committee. The experiments were authorized by the local authority “Regierung von Oberbayern” under application number 55.2-1-54-2532-165-13.
5 mg of the PA compound CCT020312 (EMD Millipore, Billerica, Mass., USA) was first dissolved in 100 μl sterile DMSO (AppliChem, Darmstadt, Germany) and then diluted in sterile saline (B. Braun Medical, Melsungen, Germany) to achieve a stock solution of […].
For the initial short-term single-dose target-engagement trial, wild type mice were treated on three consecutive days with either 2 mg/kg of CCT020312 or saline of the equivalent volume by intraperitoneal injection. They were sacrificed by cervical dislocation four hours after the last injection.
For the short-term ascending-dose target-engagement trial, wild type mice at 15 weeks of age were treated on three consecutive days with once daily intraperitoneal (i.p.) injections of either 1, 2, or 5 mg/kg of CCT020312 or equivalent volumes of saline.
For the long-term single-dose target-engagement trial, wild type mice (n=3) at 9 weeks of age were treated for 6 weeks with once daily i.p. injections of either 2 mg/kg of CCT020312 or equivalent volumes of saline.
Mice were sacrificed by cervical dislocation twelve hours after the last injection. Their brains were frozen on dry ice and stored at −80° C. for Western blot analysis.
Frontal cortex tissue was dissected from the fresh-frozen sample on dry ice and suspended in 750 μl of T-PER Tissue Protein Extraction Reagent (Thermo Fisher Scientific) and 1× cOmplete Protease Inhibitor Cocktail Tablets (Hoffmann-La Roche) and 1× PhosSTOP Phosphatase Inhibitor Cocktail Tablets (Hoffmann-La Roche). The tissue piece was initially ground with a pestle inside a microcentrifuge tube on ice and then homogenized by sonification with Branson Sonifier 450 Analog (Branson, now Thermo Fisher Scientific) with 10×500 ms bursts at intensity level 3 on ice. The solution was then centrifuged at 5000 g for 15 minutes at 4° C. and the supernatant retrieved. Protein concentrations were determined using the BCA kit (Thermo Fisher Scientific) by heating the samples at 60° C. for 30 minutes and measuring the absorption on the NanoDrop 2000c spectrophotometer (Thermo Fisher Scientific).
20 μg of protein (200 μg for pPERK blots) were adjusted to equal concentrations between samples by dilution with M-PER and subsequently heated at 95° C. for 5 minutes with Roti®-Load 1 (Carl Roth). SDS-PAGE was performed using Any kD™ Mini-PROTEAN® TGX™ Gels (BioRad, Berkeley, Calif., USA) in a tris-glycine running buffer. The protein was blotted onto PVDF membrane (BioRad) at 70 V for 65 minutes whilst being cooled with ice. The membrane was blocked with 1× Roti®-Block solution (Carl Roth) for 1 h and then incubated at 4° C. overnight under gentle shaking with the primary antibody (see Table 6) in TBS with 5% BSA (Cell Signaling Technology) and 0.05% TWEEN (Sigma-Aldrich). The membranes were then washed and incubated with the species specific HRP-bound secondary antibody (Vector Laboratories, Burlingame, Calif., USA) at 1:2500 in 1× Roti®-Block solution for 2 h, followed by further washing and exposure to Clarity Western ECL Substrate (BioRad) or, in the case of MC1, to Amersham™ ECL™ Prime (GE Healthcare). […]

[1] = wild type mice, 2 mg/kg i.p. once daily for 6 weeks, 2 mg/kg
[2] = wild type mice, 1, 2 or 5 mg/kg i.p. once daily, three days

## CCN(CC)CCC(=O)N1N=C(c2c(-c3ccccc3)c3cc(Br)ccc3[nH]c2=O)CC1c1ccc(Br)cc1 (stereo not drawn) [CCT020312, 6-bromo-3-[5-(4-bromo-phenyl)-1-(3-diethylamino-propionyl)-4,5-dihydro-1H-pyrazol-3-yl]-4-phenyl-1H-quinolin-2-one]
mice, intraperitoneal, inferred from brain pEIF2A
  brain penetration: enters the brain
Wild type mice, 2 mg/kg i.p. once daily for 6 weeks, vs saline, 2 mg/kg
  pPERK in the brain: increase; also recorded: significantly increased
[1]
  pNRF2 level in the brain: significant increase; also recorded: significantly increased
  total NRF2 levels in the brain: without significant change; also recorded: no significant upregulation
  total PERK level in the brain: no obvious change; also recorded: no significant upregulation
Wild type mice, 2 mg/kg i.p. once daily, three days, vs saline
  pEIF2A in whole brain extracts: marked increase
[2]
  pNRF2 level in brain: dose-dependent increase
  total NRF2 in brain: without significant change
Wild type mice, 1, 2 or 5 mg/kg i.p. once daily, three days, vs saline
  phosphorylated PERK in whole brain extracts: marked increase; also recorded: significantly increased
